Assay in all cases: growth of human tumour cells (NCI), 48 h
Experiment [1] deals with A498 renal.
Experiment [2] deals with CAKI-1 renal.
Experiment [3] relates to CCRF-CEM leukemia.
Experiment [4] concerns DU-145 prostate.
In experiment [5] the test system is HS 578T breast.
The test system of experiment [6] is K-562 leukemia.
In experiment [7] the test system is LOX IMVI melanoma.
Experiment [8] has as its system MALME-3M melanoma.
Experiment [9] deals with MDA-MB-231 breast.
Experiment [10] deals with MDA-MB-435.
Experiment [11] has as its system MOLT-4 leukemia.
Experiment [12] relates to NCI-H460 lung.
The test system of experiment [13] is OVCAR-8 ovarian.
Experiment [14] deals with PC-3 prostate.
The subject of experiment [15] is SF-268 CNS.
Experiment [16] concerns SK-MEL-2 melanoma.
Experiment [17] relates to SR leukemia.
The test system of experiment [18] is SW-620 colon.
In experiment [19] the test system is T-47D breast.

SMILES strings stand for the structures.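 Dose response: 5 concentrations. Exposure: 48 h. Format: 96-well plates. Endpoint: linear interpolation; highest concentration if not reached. Definition used: TGI = concentration required for complete inhibition of growth.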 Where only a bound is given, the exact number is not on record here.

On to `Cc1cc(C)c(/C=C2\C(=O)Nc3ccccc32)[nH]1`, for which the TGI in [1], in experiment [2], in experiment [3], in [4], in experiment [5] and in [6] was above 100 µM each time. In addition, the TGI in experiment [7], in experiment [8], in experiment [9], in experiment [10], in experiment [11] and in experiment [12] was above 100 µM each time. Further, the TGI in experiment [13], in experiment [14], in experiment [15], in experiment [16], in [17] and in experiment [18] was above 100 µM in each case. This compound had a TGI in experiment [19] above 100 µM.
Take `CCOC(=O)C1=C(C(=O)OCC)SC2(S1)C(C(=O)OCC)=C(C(=O)OCC)Sc1c2ssc1=O`: the TGI stood at 12.8 µM in [1]; 5.15 µM in experiment [2]; 2.06 µM in experiment [3]; 2.2 µM in experiment [4]; 5.41 µM in [5]; 3.06 µM in experiment [6]. In addition, the TGI in experiment [7] stood at 1.42 µM; in experiment [8], 4.19 µM; in experiment [9], 3.88 µM; in experiment [10], 3.93 µM; in [11], 2.14 µM; in experiment [12], 21.9 µM. Besides, the TGI in [13] is 3.31 µM; in experiment [14] it was 2.96 µM; in experiment [15], 4.19 µM; in [16] it was 5.5 µM; in [17], above 100 µM; in [18], 1.89 µM. Further, the TGI in experiment [19] is 4.62 µM.
In the case of `CC(=O)Nc1ccc(S(=O)(=O)c2nnc(NC(C)=O)s2)cc1`, the TGI in experiment [1], in experiment [2], in experiment [3], in experiment [4], in [5] and in experiment [6] was above 100 µM in each case. Further, the TGI in experiment [7], in [8], in experiment [9], in experiment [10], in experiment [11] and in experiment [12] was above 100 µM throughout. The TGI in [13], in experiment [14], in experiment [15], in experiment [16], in experiment [17] and in experiment [18] was above 100 µM each time. In experiment [19], this compound showed a TGI above 100 µM.
In the case of `O=C(CCN1CCCCC1)Nc1ccc2c(c1)C(=O)c1ccc(NC(=O)CCN3CCCCC3)cc1C2=O`, the TGI in experiment [1] was 26.7 µM; in experiment [2] it was 27.5 µM; in [3], 11.1 µM; in experiment [4], 26.9 µM; in experiment [5], 26.2 µM; in experiment [6], 7.64 µM. Besides, the TGI stood at 3.43 µM in experiment [7]; 25.5 µM in experiment [8]; 3.6 µM in [9]; 3.25 µM in experiment [10]; 14.5 µM in [11]; 3 µM in experiment [12]. For the same compound, the TGI in experiment [13] is 13.7 µM; in experiment [14] it was 5.1 µM; in experiment [15], 24.2 µM; in [16] it was 9.92 µM; in experiment [17], 6.49 µM; in [18], 4.62 µM. The same compound had a TGI in [19] of 32.1 µM.
Regarding `O=C1c2ccccc2CC12Cc1cc3c(cc1C2)CCC3`, the TGI in experiment [1], in experiment [2], in experiment [3], in experiment [4], in experiment [5] and in experiment [6] was above 100 µM throughout. The TGI in [7] was above 100 µM; in experiment [8], 76.2 µM; in experiment [9], above 100 µM; in experiment [10], above 100 µM; in experiment [11], 82.1 µM; in experiment [12], above 100 µM. In addition, the TGI in [13] is above 100 µM; in experiment [14], above 100 µM; in experiment [15], above 100 µM; in experiment [16], above 100 µM; in [17], 57.5 µM; in [18], above 100 µM. The TGI in experiment [19] is above 100 µM.
Regarding `Cc1cc(C)n(-c2nc(-n3nc(C)cc3C)nc(-n3nc(C)cc3C)n2)n1`, the TGI in experiment [1], in experiment [2], in experiment [3], in experiment [4], in experiment [5] and in experiment [6] was above 100 µM each time. Moreover, the TGI in [7], in experiment [8], in experiment [9], in experiment [10], in experiment [11] and in [12] was above 100 µM in each case. Moreover, the TGI in experiment [13], in experiment [14], in [15], in experiment [16], in experiment [17] and in experiment [18] was above 100 µM each time. This compound also had a TGI in experiment [19] above 100 µM.
With `Cc1nc2ccc(Cl)cc2c2c1CCN2c1ccc(F)cc1`, the TGI in [1] is 68.4 µM; in experiment [2], above 100 µM; in [3], above 100 µM; in experiment [4], above 100 µM; in [5] it was above 100 µM; in experiment [6], above 100 µM. Besides, the TGI in experiment [7] was 78.1 µM; in experiment [8], 82 µM; in [9], 81.3 µM; in [10] it was 63.6 µM; in experiment [11] it was above 100 µM; in [12] it was above 100 µM. Also, the TGI is above 100 µM in [13]; above 100 µM in [14]; above 100 µM in [15]; above 100 µM in [16]; 73.8 µM in experiment [17]; above 100 µM in experiment [18]. This compound registered a TGI in experiment [19] above 100 µM.
As to `N#Cc1ccc(C2ON=C(c3ccccc3)N2C23CC4CC(CC(C4)C2)C3)cc1` (configuration not stated), the TGI in [1], in experiment [2], in [3], in experiment [4], in experiment [5] and in experiment [6] was above 10 µM throughout. Moreover, the TGI in experiment [7], in [8], in experiment [9], in [10], in experiment [11] and in experiment [12] was above 10 µM in each case. Further, the TGI in experiment [13], in experiment [14], in experiment [15], in experiment [16], in experiment [17] and in [18] was above 10 µM each time. Further, the TGI in [19] was above 10 µM.

(Values after PubChem BioAssay (NCI).)
